Assays:
Assay type in all cases: cell-based
MT-1 cells = test: Proliferation of MT-1 cells (Cell Countdown Kit-8, formazan absorbance); details: 4 days, FIG. 3
Experimental: MT-1 cells (ATL-derived cell lines) were purchased from JCRB Cell Bank. MT-1 cells were seeded on a 24-well plate at 0.4×10^5 cells/0.9 mL/well and cultured for 3 hours in an RPMI1640 culture solution comprising 10% fetal bovine serum (FBS) and 1% penicillin-streptomycin in an environment of 37° C. and 5% CO2. Then, OR21, a DNA methyl transferase inhibitor and/or EPZ-6438 or DS-3201b, histone methyl transferase inhibitors were dissolved in the same culture solution, and 0.1 mL thereof was added to each well, and cultured for 4 days while exchanging with a fresh culture solution comprising each inhibitor every two days. The final concentrations of the inhibitors in the culture solution were 0.5 μM for OR21, 2.5 μM for EPZ-6438, and 0.1 μM, 0.5 μM, and 2.5 μM for DS-3201b. In addition, groups of single and combined additions of each inhibitor were provided. The effect of each inhibitor on cell proliferation was measured using Cell Countdown Kit-8 (Dojindo Laboratories). The water-soluble formazan in each well produced from reduction of tetrazolium salt […] was measured at two wavelength (450 nm/620 nm) using a plate reader (Varioskan Flash, Thermo-Fisher Scientific). The results are expressed as relative values with the absorbance of the wells in which no inhibitor was added as 100%.

DUSP5 mRNA = test: Expression amount of DUSP5 mRNA in MT-1 cells by RT-PCR; details: 4 days culture, FIG. 2A
Experimental: (§1) MT-1 cells (ATL-derived cell lines) were purchased from JCRB Cell Bank and cultured in an RPMI1640 culture solution comprising 10% fetal bovine serum (FBS) and 1% penicillin-streptomycin in an environment of 37° C. and 5% CO2. The culture was started by additions of OR21, a DNA methyl transferase inhibitor and/or EPZ-6438, a histone methyl transferase inhibitor to a culture solution of MT-1 cells, exchanged with a fresh culture solution comprising the inhibitors after 2 days, and further cultured for 2 days. After culturing, the cells were collected and total RNA was extracted, and the expression amount of DUSP5 mRNA was measured by RT-PCR using SYBR @ Green (Takara Bio).

DUSP5 protein = test: Expression amount of DUSP5 protein in MT-1 cells by Western blotting; details: 4 days culture, FIG. 2B
Experimental: as §1, with “dissolved,” for “total RNA was extracted,”, “protein” for “mRNA”, “Western blotting.” for “RT-PCR using SYBR @ Green (Takara Bio).”

Cc1cc(C)c(CNC(=O)c2cc(Cl)c3c(c2C)O[C@@](C)([C@H]2CC[C@H](N(C)C)CC2)O3)c(=O)[nH]1.Cc1ccc(S(=O)(=O)O)cc1 [DS-3201b, 4-methylbenzene-1-sulfonic acid (2R)-7-chloro-2-[(trans)-4-(dimethylamino)cyclohexyl]-N-[(4,6-dimethyl-2-oxo-1,2-dihydropyridin-3-yl)methyl]-2,4-dimethyl-2H-1,3-benzodioxole-5-carboxamide]
proliferation of MT-1 cells (MT-1 cells; DS-3201b 0.1 μM to 2.5 μM): hardly affected

CCN(c1cc(-c2ccc(CN3CCOCC3)cc2)cc(C(=O)NCc2c(C)cc(C)[nH]c2=O)c1C)C1CCOCC1 [EPZ-6438, N-[(4,6-dimethyl-2-oxo-1,2-dihydropyridin-3-yl)methyl]-5-[ethyl(tetrahydro-2H-pyran-4-yl)amino]-4-methyl-4′-(morpholin-4-ylmethyl) biphenyl-3-carboxamide]
DUSP5 mRNA expression (DUSP5 mRNA; EPZ-6438 at 0.5 μM and 2.5 μM): almost no effect | expression amount of DUSP5 protein (DUSP5 protein; EPZ-6438 2.5 μM): almost no effect | proliferation of MT-1 cells (MT-1 cells; EPZ-6438 2.5 μM): hardly affected

CC[Si](CC)(CC)OC[C@H]1O[C@@H](n2cnc(N)nc2=O)C[C@@H]1O [OR21, 5′-O-triethylsilyl-2′-deoxy-5-azacytidine]
DUSP5 mRNA expression (DUSP5 mRNA; OR21 at 0.1 μM and 0.5 μM): enhanced DUSP5 mRNA expression in a concentration-dependent manner | expression amount of DUSP5 protein (DUSP5 protein; OR21 0.5 μM): apparent increase | proliferation of MT-1 cells (MT-1 cells; OR21 0.5 μM): exhibited an effect of inhibiting proliferation

Source: US20230193350A1, “METHOD FOR DIAGNOSING AND TREATING BLOOD CANCER” (Ohara Pharmaceutical Co., Ltd., priority 2020, published 2023)
